Measured values from publication PMC11093748, “De novo identification of CD4^+ T cell epitopes” (Nature Methods, 2024).

Legend:
5-4-E8 TCR = experiment: Single SABR-II co-incubation, NFAT-GFP Jurkat; type: cell-based, mouse; conditions: I-Ad SABR-II; 18-20 h
Description: (§1) We have previously described SABRs, which are chimeric receptors containing an extracellular pMHC complex attached to an intracellular CD28-CD3ζ signaling domain. […] We sought to expand this platform to allow antigen discovery for MHC/HLA-II with seamless integration with class I alleles. Here, we created SABRs to present epitopes in MHC-II alleles, by covalently linking the epitope to the β-chain of MHC-II that is attached to the CD28-CD3ζ signaling domains downstream, along with a 2A peptide-linked MHC-II α-chain (Fig. 1a,b). To test whether SABR-IIs could present epitopes to TCRs and induce a signal, we expressed them using lentiviral vectors in NFAT–GFP Jurkat cells, which express green fluorescent protein (GFP) upon NFAT activation and translocation downstream of CD3ζ activation (a kind gift from Y. Chen and A. Weiss). We constructed murine SABR-IIs presenting epitopes in I-Ab, I-Ad and I-Ag7 (Ova, […][41]; ATEG, […][42]; and 2.5mimo, […][43], respectively). We co-incubated the SABR-II-expressing NFAT–GFP Jurkat cells with a separate population of Jurkat cells expressing either the BDC2.5 TCR (recognizes I-Ag7-2.5mimo), OT-II TCR (recognizes I-Ab-Ova), 5-4-E8 TCR (recognizes I-Ad-ATEG) or no TCR. […]

TCR2 [1] = experiment: I-Ag7 SABR-II HIP library screen, enrichment score; type: cell-based, mouse; conditions: TCR_Mean of 3 replicates minus PREDICTED_TCR (slope 0.896988, intercept 4.04602e-5)
Description: (§2) Given the predominance of HIP-reactive TCRs, we hypothesized that there may be other TCRs that respond to HIPs that were not encoded in our initial library configuration. While the initial I-Ag7 SABR-II library consisted of a number of HIPs, HIP formation is thought to be more widespread in pancreatic β-cells[52],[70]. Therefore, we sought to construct a defined, HIP-focused library to probe whether there were any undiscovered HIP-reactive TCRs that could be recognized by the clonally expanded TCR in our dataset. To test this, we utilized a published proteomic dataset, which predicted that several proteins that were highly expressed in secretory granules of β-cells may contribute to HIP formation. Using their predictions, we built a theoretical HIP library, in which all possible ‘left’ halves of the insulin C chain derived from natural cleavage products were fused to ‘right’ halves derived from secretory granule proteins (Fig. 5a). This 2,561-epitope library (12–25 amino acids per epitope) consisted of only HIPs and a small number of positive control epitopes (Supplementary Table 5). We screened the top three clonally expanded TCRs (TCR1, TCR2 and TCR3) against this library, as these TCRs had not been de-convoluted using the original library. […] To confirm that the HIP itself was important for the cognate interaction, we cloned single 14-mer epitopes into SABR-IIs consisting of seven amino acids of the left portion of the HIP and seven amino acids of the right portion of the HIP. In this way, no nine amino acids from either peptide sequence alone could occupy the binding pocket of I-Ag7, ensuring that TCR reactivity spanned the HIP junction. […] Of note, in all the epitopes that were tested, the ‘left’ half derived from insulin C was conserved, whereas the ‘right’ halves were derived from several other proteins (Fig. 5d). […] Moreover, the promiscuous binding of TCR3 to HIPs corroborates evidence from other NOD mouse-derived TCRs reacting to multiple HIPs[72].
(§3) To generate the I-Ag7 restricted SABR library, we combined all Immune Epitope Database epitopes with a published immunopeptidome generated by Wan et al.[51]. Sequences were filtered remove all post-translational modifications except deamidation and HIPs and trimmed between 9–25 amino acid lengths. For the insulin C HIP and HLA-DQ8 library, non-contiguous epitopes from Wiles et al.[66] as well as all Immune Epitope Database epitopes were combined to generate the epitope list. Epitope sequences were back-translated using the backtranslate_fast.py script.
(§4) For SABR library screens, 3 × 10^6 NFAT–GFP Jurkat cells expressing the SABR library were labeled with CellTrace Violet (BioLegend) according to the manufacturer’s protocol before incubation with 3 × 10^6 Jurkat cells expressing the TCR of interest. These mixtures were incubated in a six-well plate for 16–20 h. Cells were stained with anti-CD69-APC-Cy7 where indicated (BioLegend) and the top 1–2% of GFP^+CD69^+ cells were sorted for genomic DNA extraction, indexing and sequencing (see below). Multiplexed assays were scaled on a per-TCR basis (for example 3 × 10^6 for each of three TCRs against 9 × 10^6 library cells). For single SABR assays, unless otherwise defined, 5 × 10^5 SABR expressing NFAT–GFP Jurkat cells (or 5KC cells) were labeled with CellTrace Violet (BioLegend) according to the manufacturer’s protocol before incubation with 5 × 10^5 TCR-expressing Jurkat cells (or 5KC cells) in a round-bottom 96-well plate for 16–20 h. Cells were stained with anti-CD69-APC-Cy7 when indicated and acquired on the Attune NxT flow cytometer (Thermo Fisher Scientific). All flow analysis was performed using FlowJo (BD). For Daudi cell co-culture, 1 × 10^6 Jurkat cells expressing the TCR of interest were incubated with 1 × 10^6 Daudi cells expressing a SABR of interest for 3 days. On day 3, cells were labeled with anti-RT1B-PE and anti-Fas-APC-Cy7 before being acquired on the Attune NxT flow cytometer. […]

TCR1 = experiment: I-Ag7 SABR-II HIP library screen, enrichment score; type: cell-based, mouse; conditions: TCR_Mean of 3 replicates minus PREDICTED_TCR (slope 0.931777, intercept 2.67961e-5)
Description: as §2, §3, §4

OT-II TCR = experiment: Single SABR-II co-incubation, NFAT-GFP Jurkat; type: cell-based, mouse; conditions: I-Ab SABR-II; 18-20 h
Description: as §1

Jurkat cells, No TCR = experiment: Single SABR-II co-incubation, background without TCR; type: cell-based, human; conditions: No TCR
How it was run: (§5)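 Single SABR-II constructs for putative cognate epitopes were expressed in CellTrace Violet-labelled NFAT–GFP Jurkat cells and co-incubated 1:1 (5 × 10^5 each) with TCR-expressing Jurkat cells for 16–20 h. GFP (with CD69 staining when indicated) was measured by flow cytometry. Wells with GFP above the no-TCR control were scored positive.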

TCR15 = experiment: Single SABR-II co-incubation, NFAT-GFP Jurkat; type: cell-based, mouse; conditions: TCR 15, Fig 3B, 18 h
How it was run: as §5

TCR4 = experiment: Single SABR-II co-incubation, NFAT-GFP Jurkat; type: cell-based, mouse; conditions: TCR 4
How it was run: as §5

TCR2 [2] = experiment: Single SABR-II co-incubation, NFAT-GFP Jurkat; type: cell-based, mouse; conditions: TCR 2, Ext. Data Fig. 6C, 18-20 hr
How it was run: as §5

GSE.20D11 TCR = experiment: Single SABR-II co-incubation, NFAT-GFP Jurkat (HLA-DQ8); type: cell-based, human; conditions: GSE 20.D11 TCR
Description: (§6) We have previously described SABRs, which are chimeric receptors containing an extracellular pMHC complex attached to an intracellular CD28-CD3ζ signaling domain. […] We sought to expand this platform to allow antigen discovery for MHC/HLA-II with seamless integration with class I alleles. Here, we created SABRs to present epitopes in MHC-II alleles, by covalently linking the epitope to the β-chain of MHC-II that is attached to the CD28-CD3ζ signaling domains downstream, along with a 2A peptide-linked MHC-II α-chain (Fig. 1a,b). To test whether SABR-IIs could present epitopes to TCRs and induce a signal, we expressed them using lentiviral vectors in NFAT–GFP Jurkat cells, which express green fluorescent protein (GFP) upon NFAT activation and translocation downstream of CD3ζ activation (a kind gift from Y. Chen and A. Weiss). We constructed murine SABR-IIs presenting epitopes in I-Ab, I-Ad and I-Ag7 (Ova, […][41]; ATEG, […][42]; and 2.5mimo, […][43], respectively). We co-incubated the SABR-II-expressing NFAT–GFP Jurkat cells with a separate population of Jurkat cells expressing either the BDC2.5 TCR (recognizes I-Ag7-2.5mimo), OT-II TCR (recognizes I-Ab-Ova), 5-4-E8 TCR (recognizes I-Ad-ATEG) or no TCR. […] The signal from the NFAT–GFP reporter offered minimal background in absence of a cognate TCR and correlated with surface SABR expression in the presence of a cognate TCR (Extended Data Fig. 1c–e). […] We confirmed the ability of the DQ8-InsB9:23 SABR-II to present the epitope to two previously described, T1D patient-derived TCRs GSE.6H9 and GSE.20D11 (ref. [46]).
(§7) For SABR library screens, 3 × 10^6 NFAT–GFP Jurkat cells expressing the SABR library were labeled with CellTrace Violet (BioLegend) according to the manufacturer’s protocol before incubation with 3 × 10^6 Jurkat cells expressing the TCR of interest. These mixtures were incubated in a six-well plate for 16–20 h. Cells were stained with anti-CD69-APC-Cy7 where indicated (BioLegend) and the top 1–2% of GFP^+CD69^+ cells were sorted for genomic DNA extraction, indexing and sequencing (see below). Multiplexed assays were scaled on a per-TCR basis (for example 3 × 10^6 for each of three TCRs against 9 × 10^6 library cells). For single SABR assays, unless otherwise defined, 5 × 10^5 SABR expressing NFAT–GFP Jurkat cells (or 5KC cells) were labeled with CellTrace Violet (BioLegend) according to the manufacturer’s protocol before incubation with 5 × 10^5 TCR-expressing Jurkat cells (or 5KC cells) in a round-bottom 96-well plate for 16–20 h. Cells were stained with anti-CD69-APC-Cy7 when indicated and acquired on the Attune NxT flow cytometer (Thermo Fisher Scientific). All flow analysis was performed using FlowJo (BD). For Daudi cell co-culture, 1 × 10^6 Jurkat cells expressing the TCR of interest were incubated with 1 × 10^6 Daudi cells expressing a SABR of interest for 3 days. On day 3, cells were labeled with anti-RT1B-PE and anti-Fas-APC-Cy7 before being acquired on the Attune NxT flow cytometer.

GSE.6H9 TCR = experiment: as above; type: cell-based, human; conditions: GSE 6.H9 TCR
Description: as §6, §7

[3] = Ext. Data Fig. 6C, 18-20 hr, technical replicate 1
[4] = Ext. Data Fig. 6C, 18-20 hr, technical replicate 2
[5] = Fig 3B, 18 h, biological replicate 1
[6] = Fig 3B, 18 h, biological replicate 2
[7] = Fig 3B, 18 h, biological replicate 3

Sequence: ATEGRVRVNSAYQDK
- GFP and CD69 expression in SABR-II-expressing NFAT-GFP Jurkat cells (in words) (5-4-E8 TCR): Robust GFP and CD69 expression

Sequence: EVEDPQVAQLNAARDPNRESLD
- Enrichment score (TCR2 [1]): 0.0005844

Sequence: EVEDPQVEQLEGEDDPDRSMK
- Enrichment score (TCR2 [1]): 0.000574

Sequence: EVEDPQVEQLELSGKEVKGEEKGE
- Enrichment score (TCR1): 0.0005139

Sequence: EVEDPQVEWSRMDQLAKELT
- Enrichment score (TCR1): 0.0005047

Sequence: EVQEKPQELTDQDQSQEESQEG
- Enrichment score (TCR1): 0.0005738

Sequence: GAGDLQTLALEVEEEGSANRRAED
- Enrichment score (TCR2 [1]): 0.0005985

Sequence: GDLQTLALEVAQSGKEVKGEEKGE
- Enrichment score (TCR1): 0.0005301

Sequence: ISQAVHAAHAEINEAGR [Ova]
- GFP and CD69 expression in SABR-II-expressing NFAT-GFP Jurkat cells (in words) (OT-II TCR): Robust GFP and CD69 expression

Sequence: LQTLALNAARD
- %GFP+CD69+ cells of SABR-NFAT-GFP-Jurkat cells (Jurkat cells, No TCR; [3]): 4.02%
- %GFP+CD69+ cells of SABR-NFAT-GFP-Jurkat cells (Jurkat cells, No TCR; [4]): 3.97%
- %GFP+CD69+ cells of SABR-NFAT-GFP-Jurkat cells (Jurkat cells, No TCR; [5]): 2.49%
- %GFP+CD69+ cells of SABR-NFAT-GFP-Jurkat cells (Jurkat cells, No TCR; [6]): 7.87%
- %GFP+CD69+ cells of SABR-NFAT-GFP-Jurkat cells (Jurkat cells, No TCR; [7]): 3.83%
- %GFP+CD69+ cells of SABR-NFAT-GFP-Jurkat cells (TCR15; biological replicate 1): 43.67%
- %GFP+CD69+ cells of SABR-NFAT-GFP-Jurkat cells (TCR15; biological replicate 2): 48.77%
- %GFP+CD69+ cells of SABR-NFAT-GFP-Jurkat cells (TCR15; biological replicate 3): 51.63%
- %GFP+CD69+ cells of SABR-NFAT-GFP-Jurkat cells (TCR4; [3]): 22.3%
- %GFP+CD69+ cells of SABR-NFAT-GFP-Jurkat cells (TCR4; [4]): 22%
- %GFP+CD69+ cells of SABR-NFAT-GFP-Jurkat cells (TCR4; [5]): 42.4%
- %GFP+CD69+ cells of SABR-NFAT-GFP-Jurkat cells (TCR4; [6]): 41.7%
- %GFP+CD69+ cells of SABR-NFAT-GFP-Jurkat cells (TCR4; [7]): 45.77%

Sequence: PGDLQTLALEVALLDEGHYPVRES
- Enrichment score (TCR2 [1]): 0.0008737

Sequence: RQNGVLNSWTDQD
- %GFP+CD69+ cells of SABR-NFAT-GFP-Jurkat cells (Jurkat cells, No TCR; [3]): 1.51%
- %GFP+CD69+ cells of SABR-NFAT-GFP-Jurkat cells (Jurkat cells, No TCR; [4]): 1.42%
- %GFP+CD69+ cells of SABR-NFAT-GFP-Jurkat cells (TCR2 [2]; technical replicate 1): 1.56%
- %GFP+CD69+ cells of SABR-NFAT-GFP-Jurkat cells (TCR2 [2]; technical replicate 2): 1.62%

Sequence: SHLVEALYLVCERG
- Frequency of %GFP+CD69+ cells of SABR-NFAT-GFP-Jurkat cells (GSE.20D11 TCR; biological replicate 1 of 3): 24.8%
- Frequency of %GFP+CD69+ cells of SABR-NFAT-GFP-Jurkat cells (GSE.20D11 TCR; biological replicate 2 of 3): 42.4%
- Frequency of %GFP+CD69+ cells of SABR-NFAT-GFP-Jurkat cells (GSE.20D11 TCR; biological replicate 3 of 3): 41.1%
- Frequency of %GFP+CD69+ cells of SABR-NFAT-GFP-Jurkat cells (GSE.6H9 TCR; biological replicate 1 of 3): 16.8%
- Frequency of %GFP+CD69+ cells of SABR-NFAT-GFP-Jurkat cells (GSE.6H9 TCR; biological replicate 2 of 3): 29.6%
- Frequency of %GFP+CD69+ cells of SABR-NFAT-GFP-Jurkat cells (GSE.6H9 TCR; biological replicate 3 of 3): 27.9%

Sequence: SPGDLQTLALEVPSPKESKEADVA
- Enrichment score (TCR1): 0.0005282

Sequence: VAQLELGGGPGASEASAKKKDESV
- Enrichment score (TCR2 [1]): 0.0007771
